# Where a SMILES comes first, the peptide text is derived from it. The star is where a group is joined. Cbz = O=C(OCc1ccccc1)*
# What was measured:
# [1] = test system: H9C2 cardiomyocytes; assay type: cell-based
# Experimental: Vitamin C and NAC were added 30 min prior to doxorubicin. Cell lysates were then analyzed by Western blotting using anti-γ-H2AX or anti-α-tubulin antibody. […] Cell lysates were then analyzed by Western blotting (upper panel) using anti-γ-H2AX or anti-α-tubulin antibody. Quantification of γ-H2AX signals is shown in the lower panel. C, H9C2 cells were treated with 0.1% DMSO (labeled DMSO), bortezomib (1 μM) or MG132 (4 μM) for 30 min, followed by co-treatment with either 0.1% DMSO (labeled control) or 0.5 μM doxorubicin (labeled Doxo) for 1.5 hrs. Neutral comet assay was then performed as described in Materials and Methods. The average comet tail moments were plotted as histograms (mean±SEM). *p-value<0.001, t-test.
# The amount of Top2 cleavage complexes was measured by a band depletion assay as described in Materials and Methods. Cells were lysed either immediately or after reversal of the Top2 cleavage complexes (labeled R+250). Cell lysates were analyzed by Western blotting using anti-Top2α/Top2β or anti-α-tubulin antibody. […] Cells were then lysed and protein levels of Top2α, and Top2β isozymes were determined by Western blotting. […] Cell lysates were immunoblotted using anti-Top2β antibody. D, H9C2 cells were treated with ICRF187 (100 μM) for 4 hrs, followed by treatment with doxorubicin (Doxo, 0, 0.5 and 1 μM) for 1.5 hrs. […]
# [2] = test system: MEFs; assay: Neutral comet assay of VP-16-induced DSBs; assay type: cell-based, mouse; details: co-treatment, data not shown
# Experimental: Both wild type and Top2β knockout mouse embryonic fibroblasts (MEFs) were treated with either DMSO (solvent control) or VP-16 (250 μM) for 90 min, followed by incubated in drug-free media for 30 min. Neutral comet assay was then performed. Tail moment (average from 100 cells) was determined for each treatment.
# [3] = test system: SV40-transformed MEFs; assay: Plasmid integration assay; assay type: cell-based, mouse; details: 2 μM, added 30 min prior to and during transfection
# Experimental: Transformed top2β^+/Δ2 and top2β^Δ2/Δ2 MEFs were plated in six-well plates (4×10^5 cellsper well) one day prior to transfection. Transfection was performed with EcoRI-linearized pUCSV-BSD plasmid (containing the blasticidin resistance gene) using the Cellfectin (Invitrogen) transfection reagent (0.1 μg DNA+2 μl Cellfectin). VP-16 was added at the time of transfection. After 6 hr, cells were washed and trypsinized. A small aliquot was removed, reseeded into fresh medium and grown without the selection agent for survival determination. The rest of the cells were reseeded into fresh medium in a 10 cm plate. After 24 hr, the selection agent blasticidin (3 μg/ml) was added. Colonies were stained with methylene blue and counted after 10 days. Where indicated, the proteasome inhibitor MG132 (2 μM) was added 30 min prior to and during transfection. Integration frequency was determined as the ratio of the number of blasticidin-resistant colonies and the number of surviving cells.
# [4] = target: T1, Top2α (Rattus norvegicus, UniProt P41516); assay: Top2α protein level by Western blotting in H9C2 cells; assay type: cell-based; details: 100 μM, 0-6 hrs
# T1 construct: endogenous in cells; host or cells: H9C2 cardiomyocytes
# T1 sequence (P41516 whole entry): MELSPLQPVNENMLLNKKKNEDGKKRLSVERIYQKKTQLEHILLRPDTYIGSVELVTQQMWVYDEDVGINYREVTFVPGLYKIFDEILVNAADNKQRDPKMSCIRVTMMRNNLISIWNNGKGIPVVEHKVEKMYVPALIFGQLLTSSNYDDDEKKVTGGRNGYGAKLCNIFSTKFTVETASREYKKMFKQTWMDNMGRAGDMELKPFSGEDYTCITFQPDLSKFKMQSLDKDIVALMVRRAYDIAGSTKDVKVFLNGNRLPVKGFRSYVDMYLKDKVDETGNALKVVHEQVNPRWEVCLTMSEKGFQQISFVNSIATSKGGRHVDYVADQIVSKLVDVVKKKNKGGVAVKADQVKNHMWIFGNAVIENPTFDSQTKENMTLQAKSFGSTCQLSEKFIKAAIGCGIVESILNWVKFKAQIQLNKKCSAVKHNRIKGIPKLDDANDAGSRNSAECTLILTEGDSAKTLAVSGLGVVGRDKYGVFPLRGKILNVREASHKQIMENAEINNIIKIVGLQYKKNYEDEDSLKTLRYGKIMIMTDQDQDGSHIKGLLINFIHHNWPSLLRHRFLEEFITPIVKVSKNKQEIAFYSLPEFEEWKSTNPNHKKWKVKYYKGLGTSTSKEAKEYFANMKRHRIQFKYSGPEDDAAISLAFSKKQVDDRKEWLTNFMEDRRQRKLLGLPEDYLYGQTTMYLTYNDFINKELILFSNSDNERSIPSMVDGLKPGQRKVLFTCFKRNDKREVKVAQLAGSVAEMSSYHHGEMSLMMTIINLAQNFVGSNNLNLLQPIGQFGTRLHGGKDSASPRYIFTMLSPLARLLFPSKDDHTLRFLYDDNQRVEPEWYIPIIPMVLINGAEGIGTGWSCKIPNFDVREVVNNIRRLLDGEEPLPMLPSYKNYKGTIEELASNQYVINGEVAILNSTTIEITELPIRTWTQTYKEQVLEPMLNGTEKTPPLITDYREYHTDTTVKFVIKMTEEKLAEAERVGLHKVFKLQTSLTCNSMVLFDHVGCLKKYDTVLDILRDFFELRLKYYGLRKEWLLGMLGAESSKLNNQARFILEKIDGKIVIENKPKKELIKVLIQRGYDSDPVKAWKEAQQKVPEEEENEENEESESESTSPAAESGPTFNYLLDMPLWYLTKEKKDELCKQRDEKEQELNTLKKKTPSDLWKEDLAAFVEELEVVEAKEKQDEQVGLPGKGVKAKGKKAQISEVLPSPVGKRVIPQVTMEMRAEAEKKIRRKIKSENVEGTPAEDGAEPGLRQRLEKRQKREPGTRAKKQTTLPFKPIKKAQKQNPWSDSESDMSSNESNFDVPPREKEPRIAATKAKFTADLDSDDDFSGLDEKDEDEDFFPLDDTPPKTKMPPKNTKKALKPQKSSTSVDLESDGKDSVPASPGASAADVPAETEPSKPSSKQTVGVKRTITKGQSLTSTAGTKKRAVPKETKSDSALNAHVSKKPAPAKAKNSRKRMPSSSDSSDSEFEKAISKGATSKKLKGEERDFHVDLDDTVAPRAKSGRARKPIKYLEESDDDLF
# Experimental: (§1) The amount of Top2 cleavage complexes was measured by a band depletion assay as described in Materials and Methods. Cells were lysed either immediately or after reversal of the Top2 cleavage complexes (labeled R+250). Cell lysates were analyzed by Western blotting using anti-Top2α/Top2β or anti-α-tubulin antibody. […] Cells were then lysed and protein levels of Top2α, and Top2β isozymes were determined by Western blotting. […] Cell lysates were immunoblotted using anti-Top2β antibody. D, H9C2 cells were treated with ICRF187 (100 μM) for 4 hrs, followed by treatment with doxorubicin (Doxo, 0, 0.5 and 1 μM) for 1.5 hrs. Neutral comet assay was then performed as described in Materials and Methods. The average comet tail moments were plotted as histograms (mean±SEM). * p-value<0.001, t-test.
# [5] = test system: Top2β; assay: Top2β protein level by Western blotting in H9C2 cells; assay type: cell-based; details: 100 μM, 0-6 hrs
# Experimental: as §1
SMILES,effect on doxorubicin-induced comet tail moment [1],effect on VP-16-induced DSBs [2],effect on VP-16-stimulated plasmid integration [3],level of the Top2α isozyme [4],protein level of Top2β [5]
"CC(C)C[C@@H](C=O)NC(=O)[C@H](CC(C)C)NC(=O)[C@H](CC(C)C)NC(=O)OCc1ccccc1 [MG132, N-[(Phenylmethoxy)carbonyl]-L-leucyl-N-[(1S)-1-formyl-3-methylbutyl]-L-leucinamide] (Cbz-Leu-Leu-Leu-aldehyde)",significantly reduced,abolish,blocks,–,–
C[C@@H](CN1CC(=O)NC(=O)C1)N1CC(=O)NC(=O)C1 [dexrazoxane],–,–,–,no significant effect,time-dependent disappearance

# From patent US20140235578A1, “METHODS FOR TREATING NEOPLASIA AND FOR IDENTIFYING COMPOSITIONS USEFUL IN SUCH THERAPY” (priority 2007, published 2014)
